Measurements reported in US12577252B2, “Drug for the treatment of diseases caused by bacteria” (priority 2020, dated 2026).

Legend:
C. ulcerans = assay: MIC by serial dilution (CLSI), firmicutes bacteria; assay type: cell-based, Corynebacterium ulcerans; conditions: fresh clinical isolate
Protocol: (§1) Determination of the antimicrobial activity of substances was carried out on dense and liquid nutrient media. To assess the minimum inhibitory concentration (MIC), the serial dilution method was used, according to the recommendations of CLSI (Clinical Laboratories and Standards Institute, formerly National Committee for Clinical Laboratory Standards) (Clinical Laboratories and Standards Institute. Methods for Dilution Antimicrobial Susceptibility Tests for Bacteria That Grow Aerobically; Approved Standard—Seventh Edition Document M7-A7 CLSI, Wayne, Pa., 2006; Clinical Laboratories and Standards Institute).
(§2) The assessment of the antimicrobial activity of substances against firmicute bacteria was performed on fresh clinical isolates of strains of Streptococcus pyogenes, Streptococcus mitis, Bacillus subtilis, Bacillus cereus, Corynebacterium ulcerans, Micrococcus luteus.

[1] = tested on: Staphylococcus aureus ATCC 38591; assay: Acute generalized infection in C57BL6 mice, death of mice; assay type: in vivo; conditions: 10 mice
Protocol: To study the chemotherapeutic efficacy, a model of acute generalized infection in small animals was used. C57BL6 mice were intraperitoneally infected with Staphylococcus aureus ATCC 38591 at a dose of 1×10^8 microbial cells. The infectious dose was established in preliminary studies. Mice infected with the same dose of microbial culture but not treated served as controls.
The preparations were dissolved in an isotonic sodium chloride solution and substance 1a or Lincomycin was administered. 2 hours after infection, the drugs were administered orally daily at doses of 10 to 100 mg/kg, 2 times a day.
The death of mice was taken into account daily for 7 days.

B. cereus = assay: MIC by serial dilution (CLSI), firmicutes bacteria; assay type: cell-based, Bacillus cereus; conditions: fresh clinical isolate
Protocol: as §1, §2

L. monocytogenes = assay: MIC by serial dilution (CLSI), firmicutes bacteria; assay type: cell-based
U. urealyticum = assay: MIC, gracilicutes and wall-less bacteria; assay type: cell-based, Ureaplasma urealyticum; conditions: fresh clinical isolate
Protocol: as §1, with “Institute). The study of the effect on strains was performed on fresh clinical isolates of Haemophilus influenzae, Neisseria meningitides, Ureaplasma urealyticum strains, as well as on the Escherichia coli ATCC29592 strain.” for “Institute).”

[2] = tested on: various strains of S. aureus; assay: Effects on various strains of S. aureus (MRSA, VRSA, MSSA), overall; assay type: cell-based, Staphylococcus aureus; conditions: S. aureus strains of Table 3
Protocol: as §1
(§3) The study of the effect of Compound 1a on strains with multiple resistance to existing antibiotics was performed on fresh clinical isolates of strains: S. aureus VT-V-18, S. aureus VT-E-25 S. aureus VT-A-199 and S. aureus VT-P-82, as well as S. aureus strain American Type Culture Collection (Rockville, Md.) and strains S. aureus SA77 and S. aureus SA85,

S pyogenes = assay: MIC by serial dilution (CLSI), firmicutes bacteria; assay type: cell-based, Streptococcus pyogenes; conditions: fresh clinical isolate
Protocol: as §1, §2

[3] = tested on: Escherichia coli ATCC29592; assay: MIC, gracilicutes and wall-less bacteria; assay type: cell-based; conditions: E. coli ATCC29592
Protocol: as §1, with “Institute). The study of the effect on strains was performed on fresh clinical isolates of Haemophilus influenzae, Neisseria meningitides, Ureaplasma urealyticum strains, as well as on the Escherichia coli ATCC29592 strain.” for “Institute).”

S. pyogenes = assay: Clinical treatment of tonsillitis, eradication of the pathogen; assay type: in vivo, Streptococcus pyogenes; conditions: for Eradication, %: S. pyogenes tonsillitis patients
Protocol: (§4) This pathology was chosen by us as one of the above lists to confirm the effectiveness and practical applicability of the claimed compound. The study was performed on two groups of patients, totaling 138 people, who received the drug enterally twice a day at doses from 500 mg to 2000 mg. The compound was administered as a pharmaceutical composition containing Compound 1a in acetate form in an isotonic solution of a pharmaceutically acceptable sodium chloride carrier.

S. aureus VT-P-82 = assay: MIC, S. aureus strains with multiple resistance; assay type: cell-based, Staphylococcus aureus; conditions: VT-P-82, MRSA strain, clinical isolate
Protocol: as §1, §3

S. aureus SA85 = assay: MIC, S. aureus strains with multiple resistance; assay type: cell-based, Staphylococcus aureus; conditions: SA85, VRSA strain
Protocol: as §1, §3

S. aureus VT-V-18 = assay: MIC, S. aureus strains with multiple resistance; assay type: cell-based, Staphylococcus aureus; conditions: VT-V-18, MRSA strain, clinical isolate
Protocol: as §1, §3

S. aureus VT-E-25 = assay: MIC, S. aureus strains with multiple resistance; assay type: cell-based, Staphylococcus aureus; conditions: VT-E-25, MRSA strain, clinical isolate
Protocol: as §1, §3

S. aureus VT-A-199 = assay: MIC, S. aureus strains with multiple resistance; assay type: cell-based, Staphylococcus aureus; conditions: VT-A-199, MRSA strain, clinical isolate
Protocol: as §1, §3

S. aureus SA77 = assay: MIC, S. aureus strains with multiple resistance; assay type: cell-based, Staphylococcus aureus; conditions: SA77, VRSA strain
Protocol: as §1, §3

S. aureus = assay: Clinical treatment of tonsillitis, eradication of the pathogen; assay type: in vivo, Staphylococcus aureus; conditions: for Eradication, %: S. aureus tonsillitis patients
Protocol: as §4

S. mitis = assay: MIC by serial dilution (CLSI), firmicutes bacteria; assay type: cell-based, Streptococcus mitis; conditions: fresh clinical isolate
Protocol: as §1, §2

B. subtilis = assay: MIC by serial dilution (CLSI), firmicutes bacteria; assay type: cell-based, Bacillus subtilis; conditions: fresh clinical isolate
Protocol: as §1, §2

[4] = tested on: S. aureus ANCC29213 biofilms; assay: Survival of bacteria in biofilms (CFU count); assay type: cell-based, Staphylococcus aureus; conditions: 10 μg/ml; for Number of CFU: 24 h biofilm, incubated 24 hours at 37° C.
Protocol: S. aureus ANCC29213 bacteria were grown in a 24-well plateau in LB medium for 24 hours at 37° C. After that, Compound 1a and lincomycin (8 wells for each preparation and control without preparations) were added to the wells at final concentrations of 10 μg/ml and incubated for 24 hours at 37° C. After incubation, the medium was removed, the biofilms were washed with a sterile solution of isotonic sodium chloride, the biofilms were removed from the bottom of the wells, resuspended in isotonic sodium chloride solution, and the number of colony forming units (CFU) was determined by the method of serial dilutions.

H. influenzae [5] = assay: MIC of 1a and its combinations with antimicrobials, serial dilutions; assay type: cell-based, Haemophilus influenzae; conditions: liquid nutrient medium, substance alone
Protocol: We used a strain of H. influenzae grown on a liquid nutrient medium. The minimum inhibitory concentration was determined by the method of serial dilutions.

S. aureus ATCC 29213 = assay: MIC by serial dilution (CLSI), S. aureus ATCC 29213; assay type: cell-based, Staphylococcus aureus
H. influenzae [6] = assay: MIC, gracilicutes and wall-less bacteria; assay type: cell-based, Haemophilus influenzae; conditions: fresh clinical isolate, Table 2
Protocol: as §1, with “Institute). The study of the effect on strains was performed on fresh clinical isolates of Haemophilus influenzae, Neisseria meningitides, Ureaplasma urealyticum strains, as well as on the Escherichia coli ATCC29592 strain.” for “Institute).”

N. meningitides = assay: MIC, gracilicutes and wall-less bacteria; assay type: cell-based, Neisseria meningitides; conditions: fresh clinical isolate
Protocol: as §1, with “Institute). The study of the effect on strains was performed on fresh clinical isolates of Haemophilus influenzae, Neisseria meningitides, Ureaplasma urealyticum strains, as well as on the Escherichia coli ATCC29592 strain.” for “Institute).”

M. lutteus = assay: MIC by serial dilution (CLSI), firmicutes bacteria; assay type: cell-based, Micrococcus luteus; conditions: fresh clinical isolate
Protocol: as §1, §2

[7] = tested on: methicillin- and vancomycin-resistant strains of Staphylococcus aureus and Streptococcus spp; conditions: literature statement; cited from earlier work
[8] = 10 mg/kg orally 2 times a day, day 2
[9] = 10 mg/kg orally 2 times a day, day 4
[10] = 20 mg/kg orally 2 times a day, day 3
[11] = 20 mg/kg orally 2 times a day, day 4
[12] = Haemophilus influenzae, read-out: MIC

## CC(=O)[O-].O=c1[nH]c(=O)c2cc3cc(Br)cc(Br)c3[o+]c2[nH]1 [Compound 1a, 7,9-dibromo-2,4-dioxo-1,2,3,4-tetrahydrochromeno[2,3-d]-pyrimidinium-10 acetate]
C. ulcerans
  MIC: 0.5 µg/mL
[1]; [8]
  Mice death: 1
[1]; [9]
  Mice death: 1
[1]; 10 mg/kg orally 2 times a day, day 5
  Mice death: 2
[1]; 10 mg/kg orally 2 times a day, day 6
  Mice death: 1
[1]; [10]
  Mice death: 1
[1]; [11]
  Mice death: 1
[1]; 20 mg/kg orally 2 times a day, day 5
  Mice death: 2
B. cereus
  MIC: 1.0 µg/mL
L. monocytogenes
  MIC: 1.0 µg/mL
U. urealyticum
  MIC: 10.0 µg/mL
[2]
  Resistance: Not detected
  efficacy on methicillin/vancomycin-resistant versus susceptible strains: did not differ
S pyogenes
  MIC: 0.1 µg/mL
[3]
  MIC: 20.0 µg/mL
S. pyogenes; day 4
  Eradication, %: 94.37%
  Eradication, Number of patients: 67
S. pyogenes; day 8
  Eradication, %: 95.77%
  Eradication, Number of patients: 68
S. pyogenes; day 14
  Eradication, %: 95.77%
  Eradication, Number of patients: 68
S. aureus VT-P-82
  MIC: 2.0 µg/mL
S. aureus SA85
  MIC: 1.0 µg/mL
S. aureus VT-V-18
  MIC: 0.5 µg/mL
S. aureus VT-E-25
  MIC: 1.0 µg/mL
S. aureus VT-A-199
  MIC: 1.0 µg/mL
S. aureus SA77
  MIC: 0.5 µg/mL
S. aureus; day 4, enterally twice a day
  Eradication, %: 85.14%
  Eradication, Number of patients: 63
S. aureus; day 8
  Eradication, %: 91.89%
  Eradication, Number of patients: 68
S. aureus; day 14
  Eradication, %: 94.59%
  Eradication, Number of patients: 70
S. mitis
  MIC: 0.1 µg/mL
B. subtilis
  MIC: 1.0 µg/mL
[4]; 24 hours
  reduction of the number of bacteria capable of growth in biofilms: 1000 times
[4]
  Number of CFU: 4.0 ± 1.0 × 10^5 CFU
H. influenzae [5]
  MIC: 10.0 µg/mL
S. aureus ATCC 29213; ATCC 29213, strain MSSA, Table 3
  MIC: 0.5 µg/mL
S. aureus ATCC 29213; S. aureus ATCC 29213, Table 1
  MIC: 0.5 µg/mL
H. influenzae [6]
  MIC: 10.0 µg/mL
N. meningitides
  MIC: 10.0 µg/mL
M. lutteus
  MIC: 1.0 µg/mL

## O=C([O-])CCC(=O)[O-].O=c1[nH]c(=O)c2cc3cc(Br)cc(Br)c3[o+]c2[nH]1.O=c1[nH]c(=O)c2cc3cc(Br)cc(Br)c3[o+]c2[nH]1 [Compound 1b, 7,9-dibromo-2,4-dioxo-1,2,3,4-tetrahydrochromeno[2,3-d]-pyrimidinium-10 succinate]
C. ulcerans
  MIC: 2.0 µg/mL
B. cereus
  MIC: 4.0 µg/mL
L. monocytogenes
  MIC: 4.0 µg/mL
U. urealyticum
  MIC: 20.0 µg/mL
S pyogenes
  MIC: 2.0 µg/mL
[3]
  MIC: 30.0 µg/mL
S. mitis
  MIC: 2.0 µg/mL
B. subtilis
  MIC: 2.0 µg/mL
S. aureus ATCC 29213; S. aureus ATCC 29213, Table 1
  MIC: 1.0 µg/mL
H. influenzae [6]
  MIC: 20.0 µg/mL
N. meningitides
  MIC: 20.0 µg/mL
M. lutteus
  MIC: 2.0 µg/mL

## C[C@H]1COc2c(N3CCN(C)CC3)c(F)cc3c(=O)c(C(=O)O)cn1c23 [Levofloxacin]
H. influenzae [5]; [12]
  MIC: 0.05 µg/mL

## CCC[C@@H]1C[C@@H](C(=O)N[C@@H]([C@H]2O[C@H](SC)[C@H](O)[C@@H](O)[C@H]2O)[C@@H](C)O)N(C)C1 [Lincomycin]
[1]; [8]
  Mice death: 2
[1]; [9]
  Mice death: 1
[1]; 10 mg/kg orally 2 times a day, fifth day, head printed 1
  Mices death: 2
[1]; 10 mg/kg orally 2 times a day, sixth day column, head printed 2
  Mices death: 1
[1]; [10]
  Mice death: 1
[1]; [11]
  Mice death: 1
[1]; 20 mg/kg orally 2 times a day, fifth day, head printed 1
  Mices death: 3
[1]; 50 mg/kg orally 2 times a day, day 3
  Mices death: 1
[1]; 50 mg/kg orally 2 times a day, day 4
  Mices death: 1
[1]; 50 mg/kg orally 2 times a day, fifth day, head printed 1
  Mices death: 2
[7]
  effect on MRSA and VRSA strains: no effect
[4]; 24 hours
  change of the number of CFUs in biofilms: does not change the number of CFUs
[4]
  Number of CFU: 2.0 ± 1.0 × 10^8 CFU

## CC1(C)S[C@@H]2[C@H](NC(=O)COc3ccccc3)C(=O)N2[C@H]1C(=O)O [Phenoxymethylpenicillin, reference compound]
S. pyogenes; day 4
  Eradication, %: 10.14%
  Eradication, Number of patients: 7
S. pyogenes; day 8
  Eradication, %: 11.59%
  Eradication, Number of patients: 8
S. pyogenes; day 14
  Eradication, %: 13.04%
  Eradication, Number of patients: 9
S. aureus; day 4, enterally twice a day
  Eradication, %: 4.11%
  Eradication, Number of patients: 3
S. aureus; day 8
  Eradication, %: 9.59%
  Eradication, Number of patients: 7
S. aureus; day 14
  Eradication, %: 13.70%
  Eradication, Number of patients: 10

## CN(C)[C@@H]1C(O)=C(C(N)=O)C(=O)[C@@]2(O)C(O)=C3C(=O)c4c(O)cccc4[C@@](C)(O)[C@H]3C[C@@H]12 [Tetracycline]
H. influenzae [5]; [12]
  MIC: 2 µg/mL
